The values that follow come from US11415576B2, “Method for measurement of vitamin D” (Roche Diagnostics Operations, Inc., priority 2014, dated 2022).

The assay deals with T1, ruthenylated Vitamin D-binding protein conjugate (Homo sapiens, UniProt P02774).
T1 sequence (P02774 17-474): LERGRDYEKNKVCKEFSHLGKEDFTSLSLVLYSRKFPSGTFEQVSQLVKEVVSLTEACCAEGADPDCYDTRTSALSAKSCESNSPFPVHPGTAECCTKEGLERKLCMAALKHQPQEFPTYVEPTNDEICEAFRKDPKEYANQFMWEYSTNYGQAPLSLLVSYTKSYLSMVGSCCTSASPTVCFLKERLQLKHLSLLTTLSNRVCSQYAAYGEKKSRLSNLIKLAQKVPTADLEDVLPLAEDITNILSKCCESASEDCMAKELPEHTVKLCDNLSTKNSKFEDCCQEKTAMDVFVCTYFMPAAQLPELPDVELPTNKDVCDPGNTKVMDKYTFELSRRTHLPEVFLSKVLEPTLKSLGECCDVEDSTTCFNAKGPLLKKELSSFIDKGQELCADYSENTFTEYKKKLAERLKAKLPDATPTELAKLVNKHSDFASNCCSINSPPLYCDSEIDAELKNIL
The assay can be described thus: Elecsys Vitamin D total immunoassay, dilution series in Diluent Universal, without or with blocking reagent.

Turning to `C=C1CC[C@H](O)C/C1=C/C=C1\CCC[C@@]2(C)C1CC[C@@H]2[C@H](C)CCC(O)C(C)(C)O` (stereo partly shown) [24,25(OH)2VitD3, 24,25-dihydroxyvitamin D3], the B/B0 is, setting by setting: (24 nmoL/L, Reference, without blocking reagent) 67%; (24 nmoL/L, with mAb<24,25(OH)2VitD3> 0.075 mg/mL in R1) 95%; (48 nmoL/L, Reference, without blocking reagent) 53%; (48 nmoL/L, with mAb<24,25(OH)2VitD3> 0.075 mg/mL in R1) 92%; (72 nmoL/L, Reference, without blocking reagent) 37%; (72 nmoL/L, with mAb<24,25(OH)2VitD3> 0.075 mg/mL in R1) 91%. Further, the B/B0 reads like this: (96 nmoL/L, Reference, without blocking reagent) 32%; (96 nmoL/L, with mAb<24,25(OH)2VitD3> 0.075 mg/mL in R1) 91%; (120 nmoL/L, Reference, without blocking reagent) 26%; (120 nmoL/L, with mAb<24,25(OH)2VitD3> 0.075 mg/mL in R1) 88%; (144 nmoL/L, Reference, without blocking reagent) 25%; (144 nmoL/L, with mAb<24,25(OH)2VitD3> 0.075 mg/mL in R1) 88%. Further, the B/B0 (192 nmoL/L, Reference, without blocking reagent) was 21%; the B/B0 (192 nmoL/L, with mAb<24,25(OH)2VitD3> 0.075 mg/mL in R1) was 86%; the B/B0 (240 nmoL/L, Reference, without blocking reagent) stood at 18%; the B/B0 (240 nmoL/L, with mAb<24,25(OH)2VitD3> 0.075 mg/mL in R1) was 82%; the B/B0 (288 nmoL/L, Reference, without blocking reagent) is on record as 15%; the B/B0 (288 nmoL/L, with mAb<24,25(OH)2VitD3> 0.075 mg/mL in R1) was found to be 76%. In addition, the B/B0 came to 13% (360 nmoL/L, Reference, without blocking reagent); 74% (360 nmoL/L, with mAb<24,25(OH)2VitD3> 0.075 mg/mL in R1); 11% (480 nmoL/L, Reference, without blocking reagent); 66% (480 nmoL/L, with mAb<24,25(OH)2VitD3> 0.075 mg/mL in R1). For the same compound, the “cross-reactivity of the reference immunoassay” value (without blocking reagent) was “showed cross-reactivity”.

Regarding `C=C1CC[C@H](O)C/C1=C/C=C1\CCC[C@]2(C)[C@@H]([C@H](C)CCCC(C)(C)O)CC[C@@H]12` [25(OH)VitD3, 25-hydroxyvitamin D3], the B/B0 reads like this: (25 nmoL/L, Reference, without blocking reagent) 81%; (25 nmoL/L, with mAb<24,25(OH)2VitD3> 0.075 mg/mL in R1) 77%; (50 nmoL/L, Reference, without blocking reagent) 59%; (50 nmoL/L, with mAb<24,25(OH)2VitD3> 0.075 mg/mL in R1) 63%; (75 nmoL/L, Reference, without blocking reagent) 44%; (75 nmoL/L, with mAb<24,25(OH)2VitD3> 0.075 mg/mL in R1) 49%. The compound also showed a B/B0 (100 nmoL/L, Reference, without blocking reagent) of 37%; a B/B0 (100 nmoL/L, with mAb<24,25(OH)2VitD3> 0.075 mg/mL in R1) of 42%; a B/B0 (125 nmoL/L, Reference, without blocking reagent) of 30%; a B/B0 (125 nmoL/L, with mAb<24,25(OH)2VitD3> 0.075 mg/mL in R1) of 33%; a B/B0 (150 nmoL/L, Reference, without blocking reagent) of 27%; a B/B0 (150 nmoL/L, with mAb<24,25(OH)2VitD3> 0.075 mg/mL in R1) of 30%. Further, the B/B0 reads like this: (200 nmoL/L, Reference, without blocking reagent) 22%; (200 nmoL/L, with mAb<24,25(OH)2VitD3> 0.075 mg/mL in R1) 23%; (250 nmoL/L, Reference, without blocking reagent) 18%; (250 nmoL/L, with mAb<24,25(OH)2VitD3> 0.075 mg/mL in R1) 18%; (300 nmoL/L, Reference, without blocking reagent) 16%; (300 nmoL/L, with mAb<24,25(OH)2VitD3> 0.075 mg/mL in R1) 15%. Moreover, the B/B0 is listed as 14% (374 nmoL/L, Reference, without blocking reagent); 13% (374 nmoL/L, with mAb<24,25(OH)2VitD3> 0.075 mg/mL in R1); 11% (499 nmoL/L, Reference, without blocking reagent); 10% (499 nmoL/L, with mAb<24,25(OH)2VitD3> 0.075 mg/mL in R1). The “cross-reactivity of the reference immunoassay” value (without blocking reagent) is on record as “showed cross-reactivity”.
